Assay results: US20080171710A1, “The Redox/Fyn/c-Cbl Pathway” (priority 2007, published 2008)
Like-named read-outs stand apart in the source and are kept apart here.

How the values were obtained:
PDGFRα [1] = assay: PDGFR ubiquitylation (immunoprecipitation assay); assay type: cell-based, rat; conditions: MeHg exposure
Description: For the co-immunoprecipitation assay, anti-c-Cbl monoclonal antibody (BD PharMingen) or anti-PDGFRα polyclonal antibody (Santa Cruz Biotechnology) was added to the pre-cleared cell lysates (250 μg of total protein), and the mixtures were gently rocked for 2 h at 4° C. A total of 30 μl of protein A/G agarose was then added to the mixture followed by rotating at 4° C. overnight. The protein A/G agarose was then spun down and washed thoroughly three times. The precipitates were resolved on an 8% SDS-PAGE gel and then were subjected to Western blot analysis using an anti-p-Tyr (for c-Cbl phosphorylation assay) or ubiquitin (for PDGFR ubiquitylation assay) antibody (Santa Cruz Biotechnology).

O-2A/OPCs [2] = assay: Cell death of O-2A/OPCs on exposure; assay type: cell-based, rat
Description: To generate sufficient numbers of cells for biochemical analysis, cells, were expanded through one to two passages in PDGF+FGF-2 before replating in the presence of PDGF alone. When cells achieved approximately 50% confluence, MeHg, Pb, or paraquat was added to their medium at concentrations indicated. Doses for the toxicants were chosen on the basis of dose-response curves to identify sub-lethal exposure levels, as a reflection of blood and brain toxicant levels of these compounds and, where applicable, on the basis of previous reports. All toxicant concentrations examined were confirmed to cause death of less than 5% of cells over the time course of the experiment.

[3] = Brain mercury levels in offspring after maternal drinking water exposure; assay type: in vivo, mice
Description: Six-week-old female SJL mice were treated with MeHg in their drinking water at a concentration of 100 or 250 ppb for 30-60 d prior to mating, and then throughout pregnancy and gestation. This is a level of treatment that is 75%-90% below levels generally considered to be low to moderate and is below levels that have been associated with gross defects in adult or developing animals (e.g., [69-73]).
In the present study, exposure of female mice to MeHg in their drinking water at a concentration of 250 ppb prior to conception, and maintenance of this exposure during suckling, was associated with brain mercury levels in the offspring (examined at P.14) of 50 ng/g, a fall that was precisely in agreement with predictions based on prior studies on the fall of mercury levels occurring during this period in suckling mice. […] The exposure levels of 100 and 250 ppb are 75%-90% below what has otherwise been considered to be low-dose exposure in mice.

PDGFRα [4] = assay: PDGFRα levels in brain tissue after developmental exposure; assay type: in vivo, SJL mice; conditions: 100 or 250 ppb MeHg in maternal drinking water; cerebellum, hippocampus, corpus callosum; 7 and 21 d after birth
Text: (§1) Anti-phosphorylated Erk monoclonal, anti-Erk monoclonal, anti-TrkC polyclonal anti-Fyn polyclonal, anti-EGFR polyclonal, anti-c-Met polyclonal, anti-phospho-tyrosine monoclonal, and anti-PDGFRα polyclonal antibodies were obtained from Santa Cruz Biotechnology (Santa Cruz, Calif., United States). Anti-c-Cbl monoclonal antibody was obtained from BD PharMingen (San Diego, Calif., United States). Anti-phosphorylated Akt monoclonal and anti-Akt polyclonal antibodies were obtained from Cell Signaling Technology (Beverly, Mass., United States). Anti-phosphorylated PDGPRα polyclonal antibody was obtained from Biosource (Carlsbad, Calif., United States). The cell culture samples were collected and lysed in RAPI buffer, whereas dissected tissue samples were sonicated in RAPI buffer. Samples were resolved on SDS-PAGE gels and transferred to PVDF membranes (PerkinElmer Life Science. Wellesley, Mass., United States), After being blocked in 5% skim milk in PBS containing 0.1% Tween 20, membranes were incubated with a primary antibody, followed by incubation with an HRP-conjugated secondary antibody (Santa Cruz Biotechnology). Membranes were visualized using Western Blotting Luminol Reagent (Santa Cruz Biotechnology). […]

EGFR = EGFR levels in brain tissue after developmental exposure; assay type: in vivo, SJL mice; conditions: 100 or 250 ppb MeHg in maternal drinking water; 7 and 21 d after birth
Text: as §1

TrkC = TrkC levels in brain tissue after developmental exposure; assay type: in vivo, SJL mice; conditions: 100 or 250 ppb MeHg in maternal drinking water
Text: as §1

[5] = 14 mo of age, cited from earlier work
O-2A/OPCs [6] = assay: Analysis of Pb uptake (Leadmium Green AM); assay type: cell-based, rat; conditions: 1 μM Pb, 1 mM NAC
Description: Pre-treatment with NAC was assayed to determine whether levels of intracellular Pb was altered using analysis with the Leadmium Green AM dye (Molecular Probes), according to the manufacturer's instructions. […] (unpaired t-test), and the values for both Pb-treated samples were several-fold higher than control values.

cancer cells = assay: Cancer cell viability (MTT assays), FIG. 22; assay type: cell-based; conditions: TMX 1-50 μM, 48 hours

SMILES | ubiquitylation of PDGFRα (PDGFRα [1]) | cell death at the concentrations used (O-2A/OPCs [2]; MeHg at lower concentrations (not above 50 nM), 1 μM Pb, 5 μM paraquat) | exposure level associated with significant lethality (O-2A/OPCs [2]; O-2A/OPCs) | brain mercury in offspring ([3]; 100 ppb MeHg in maternal drinking water) | brain mercury levels in the offspring ([3]; 250 ppb MeHg in maternal drinking water, examined at P14) | levels of PDGFRα in brain (PDGFRα [4]) | levels of EGFR in brain (EGFR) | levels of TrkC in brain (TrkC) | brain levels of MeHg ([5]; 1 ppm in drinking water from conception) | brain levels of MeHg ([5]; 3 ppm in drinking water) | Pb levels in cells, Pb versus Pb and NAC (O-2A/OPCs [6]) | effect on TMX effects on cancer cells (cancer cells)
[CH3][Hg][Cl] [MeHg, methylmercury] | enhanced ubiquitylation | little or no cell death | above 50 nM | below the levels of detection | 50 ng/g | clear and significant reductions | clear and significant reductions | not reduced | 1.20 mg/kg | 3.66 mg/kg | – | –
CC(=O)N[C@@H](CS)C(=O)O [NAC, N-acetyl-L-cysteine] | – | – | – | – | – | – | – | – | – | – | no significant difference | not blocked
